Biological target: T1, Son of sevenless homolog 1 (Homo sapiens, UniProt Q07889)
T1 sequence (Q07889 whole entry): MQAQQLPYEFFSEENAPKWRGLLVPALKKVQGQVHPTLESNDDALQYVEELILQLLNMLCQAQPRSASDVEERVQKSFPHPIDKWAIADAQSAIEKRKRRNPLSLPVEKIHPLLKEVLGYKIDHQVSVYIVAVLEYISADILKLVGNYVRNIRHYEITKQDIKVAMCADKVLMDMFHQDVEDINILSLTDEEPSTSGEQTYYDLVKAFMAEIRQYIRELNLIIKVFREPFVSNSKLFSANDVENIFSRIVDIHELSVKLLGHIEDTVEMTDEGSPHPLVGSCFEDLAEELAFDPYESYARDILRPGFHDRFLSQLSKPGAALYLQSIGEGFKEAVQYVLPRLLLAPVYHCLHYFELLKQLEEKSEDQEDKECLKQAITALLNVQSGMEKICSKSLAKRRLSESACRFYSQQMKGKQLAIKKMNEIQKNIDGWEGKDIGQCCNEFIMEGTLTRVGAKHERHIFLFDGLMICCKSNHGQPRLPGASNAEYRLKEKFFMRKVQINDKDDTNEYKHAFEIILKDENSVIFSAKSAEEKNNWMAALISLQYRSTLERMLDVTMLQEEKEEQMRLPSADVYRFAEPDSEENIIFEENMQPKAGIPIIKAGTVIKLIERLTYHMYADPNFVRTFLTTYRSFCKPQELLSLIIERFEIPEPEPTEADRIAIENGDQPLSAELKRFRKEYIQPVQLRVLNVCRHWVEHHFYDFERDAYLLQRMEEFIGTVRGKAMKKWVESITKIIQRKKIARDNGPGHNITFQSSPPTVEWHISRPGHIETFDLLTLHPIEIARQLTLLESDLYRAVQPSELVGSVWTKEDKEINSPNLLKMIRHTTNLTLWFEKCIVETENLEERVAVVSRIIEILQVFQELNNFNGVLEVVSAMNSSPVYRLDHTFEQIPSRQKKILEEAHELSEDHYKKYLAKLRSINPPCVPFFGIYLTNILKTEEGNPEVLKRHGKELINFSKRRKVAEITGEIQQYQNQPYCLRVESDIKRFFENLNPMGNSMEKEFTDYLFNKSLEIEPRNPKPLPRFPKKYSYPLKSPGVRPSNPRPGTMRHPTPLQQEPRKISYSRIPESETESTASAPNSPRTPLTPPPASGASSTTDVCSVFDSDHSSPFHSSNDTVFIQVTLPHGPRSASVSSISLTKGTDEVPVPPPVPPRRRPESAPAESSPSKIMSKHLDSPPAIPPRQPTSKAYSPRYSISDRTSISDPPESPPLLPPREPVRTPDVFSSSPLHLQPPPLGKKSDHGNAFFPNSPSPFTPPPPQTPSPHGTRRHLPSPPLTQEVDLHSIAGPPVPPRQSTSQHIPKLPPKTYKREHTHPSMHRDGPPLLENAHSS
Assay: SOS1-KRas (G12C) FRET Assay
Method: Inhibition of the SOS1: KRAS interaction was measured using purified GST-tagged KRAS (res. 1-169, G12C, purified based on Hillig, et al., Proc Natl Acad Sci USA (2019); 116 (7): 2551-2560) and recombinant His10-SOS1 (res. 564-1049; purified based on Hillig, et al.). The final assay was performed at 20 uL with 0.5 nM SOS1 protein and 2.5 nM KRAS protein in a buffer of PBS, 0.1% BSA, 5 mM MgCl2, 0.0025% Igepal, 100 mM KF, 5 mM DTT in a white 384 square well OptiPlate (PerkinElmer, Cat. 6007290). A 2×KRAS working solution was prepared in an assay buffer containing 5 nM GST-KRAS G12C and 2 nM anti-GST-Eu (K) (Cisbio, Cat. 61GSTKLA) and pre-incubated for 15 minutes at 25° C. Compounds were serially diluted in 100% DMSO from 2 mM (positive control, compound I-13, PCT Publ. No. WO2018/115380) or 20 mM and then diluted 1:20 in assay buffer before incubation with a solution of SOS1 protein mixed 1:5 with anti-6His-XL665 FRET […] (Cisbio, Cat. 61HISXL) for 15 minutes at 25° C. before addition of 2×KRAS working solution. The final DMSO concentration is 0.5%. Plates were incubated at RT for 2 hrs before the FRET signal was measured using Envision at emission 665 nm and 615 nm.

- IC50: 19.8 nM
Compound: C[C@@H](NC(=O)c1cc(N2CCOCC2)c(F)cc1N[C@H]1[C@@H]2CN(C)C[C@@H]21)c1cccc(C(F)F)c1F [US20250368634, Example 55]

— BindingDB's records for patent US20250368634 (SchroDinger, 2025)
